Experimental data reported in patent US20240240224A1, “FLUORESCENT D-TYPE AMINO ACID METABOLISM MARKER-BASED METHOD FOR DETECTING ANTIBACTERIAL DRUG SENSITIVITY TEST” (priority 2020, published 2024).
Converted amounts (≈) assume the structure as drawn.

Tests used:
E. coli Ec11 [1] = assay: BMD susceptibility test; assay type: cell-based, Escherichia coli; conditions: unit assumed
E. coli Ec11 [2] = assay: FaAST (FDAA metabolic labeling); assay type: cell-based, Escherichia coli; conditions: unit assumed
Experimental: (§1) The specific experimental steps are as follows: • 1. Take the colony to be tested that has been cultured overnight on the plate and fully mix it in normal saline to make a uniform bacterial solution. Dilute it into CAMHB medium to make a bacterial solution with OD600=0.05. • 2. Add 45 μl antibiotic solutions to be tested of different concentrations to 96-well plates (see Table 3 for antibiotic concentration gradient settings). • 3. Add 50 μl of bacterial solution prepared in Step 1 to the 96-well plate and mix well. • 4.5 μl of 10 mM Cy5-DAA probe was added to each well (final concentration was 0.15 mM, and its structure was shown in FIG. 1). After mixing, the probe was incubated for 2 hours in the dark. • 5. After dilution with 200 μl PBS solution, the fluorescence intensity of each sample was detected by flow cytometry. The flow detection results are shown in the attached FIG. 4-5, showing the curve of antibiotic concentration gradient and fluorescence intensity, and the MIC (minimum inhibitory concentration) is obtained by referring to this curve.
(§2) Antibiotic resistant strains are shown in bold in the table below.

Ec ATCC 25922 [3] = assay: FaAST (FDAA metabolic labeling); assay type: cell-based, Escherichia coli; conditions: unit assumed
Experimental: as §1, §2

E. coli Ec13 [4] = assay: BMD susceptibility test; assay type: cell-based, Escherichia coli; conditions: unit assumed
E. coli Ec13 [5] = assay: FaAST (FDAA metabolic labeling); assay type: cell-based, Escherichia coli; conditions: unit assumed
Experimental: as §1, with “cytometry.” for “cytometry. The flow detection results are shown in the attached FIG. 4-5, showing the curve of antibiotic concentration gradient and fluorescence intensity, and the MIC (minimum inhibitory concentration) is obtained by referring to this curve.”

Ec ATCC 25922 [6] = assay: BMD susceptibility test; assay type: cell-based, Escherichia coli; conditions: unit assumed
P. aeruginosa Pa2 [7] = assay: BMD susceptibility test; assay type: cell-based, Pseudomonas aeruginosa; conditions: unit assumed
P. aeruginosa Pa3 [8] = assay: BMD susceptibility test; assay type: cell-based, Pseudomonas aeruginosa; conditions: unit assumed
P. aeruginosa Pa2 [9] = assay: FaAST (FDAA metabolic labeling); assay type: cell-based, Pseudomonas aeruginosa; conditions: unit assumed
Experimental: as §1, §2

P. aeruginosa Pa3 [10] = assay: FaAST (FDAA metabolic labeling); assay type: cell-based, Pseudomonas aeruginosa; conditions: unit assumed
Experimental: as §1, §2

Pa ATCC 27853 [11] = assay: FaAST (FDAA metabolic labeling); assay type: cell-based, Pseudomonas aeruginosa; conditions: unit assumed
Experimental: as §1, §2

Pa ATCC 27853 [12] = assay: BMD susceptibility test; assay type: cell-based, Pseudomonas aeruginosa; conditions: unit assumed
A. baumannii Ab19 [13] = assay: BMD susceptibility test; assay type: cell-based, Acinetobacter baumannii; conditions: unit assumed
A. baumannii Ab19 [14] = assay: FaAST (FDAA metabolic labeling); assay type: cell-based, Acinetobacter baumannii; conditions: unit assumed
Experimental: as §1, §2

K. pneumoniae Kp6 [15] = assay: BMD susceptibility test; assay type: cell-based, Klebsiella pneumoniae; conditions: unit assumed
K. pneumoniae Kp6 [16] = assay: FaAST (FDAA metabolic labeling); assay type: cell-based, Klebsiella pneumoniae; conditions: unit assumed
Experimental: as §1, with “cytometry.” for “cytometry. The flow detection results are shown in the attached FIG. 4-5, showing the curve of antibiotic concentration gradient and fluorescence intensity, and the MIC (minimum inhibitory concentration) is obtained by referring to this curve.”

[17] = test system: Klebsiella pneumoniae KPN6; assay: FaAST with DAA-Tetra probe; assay type: cell-based; conditions: unit assumed
Experimental: The specific experimental steps are as follows: • 1. The tested colonies cultured overnight on the plate were picked and mixed thoroughly in 2× Cation-Adjusted Mueller Hinton Broth medium (2×CAMHB) to make bacterial suspension with turbidity of OD600=0.1. • 2. […] Add 50 μL of the bacterial solution prepared in step 1 (the final concentration of the bacterial solution is OD600=0.05) to the 96-well plate, and add 5 μL of 3 mM DAA-Tetra probe (the final concentration is 0.15 mM), mix well, and incubate in the dark at 37° C. 120 rpm for 2 hours. • 4. After culture, dilute the mixed bacterial solution 10 times with PBS solution, and detect the fluorescence intensity of each sample with flow cytometry. The flow detection result is shown in FIG. 14-19, and the arrow is for the MIC value. The minimum inhibitory concentration of antibiotics was obtained according to the fluorescence signal intensity of flow detection, and the statistical results are shown in Table 6.

[18] = test system: Klebsiella pneumoniae KPN6; assay: VITEK drug sensitivity test; assay type: cell-based; conditions: unit assumed
Ec ATCC 25922 [19] = conditions: cited from earlier work
Pa ATCC 27853 [20] = conditions: cited from earlier work
E.coli 1113 [21] = assay: FDAA metabolic labeling susceptibility test (Cy5-DAA probe, flow cytometry); assay type: cell-based, Escherichia coli; conditions: Escherichia coli; E.coli 1113; Cy5-DAA probe, 2 hours; read-out: MIC, FDAA
Experimental: as §1

E.coli 1146 [22] = assay: as above; assay type: cell-based, Escherichia coli; conditions: Escherichia coli; E.coli 1146; Cy5-DAA probe, 2 hours; read-out: MIC, FDAA
Experimental: as §1

E.coli 1113 [23] = assay: Vitek 2 drug sensitivity test; assay type: cell-based, Escherichia coli; on Sensibility: key: S: Drug sensitive; R: Drug resistance
E.coli 1146 [24] = assay: Vitek 2 drug sensitivity test; assay type: cell-based, Escherichia coli; on Sensibility: key: S: Drug sensitive; R: Drug resistance
A. baumannii Ab16 [25] = assay: BMD susceptibility test; assay type: cell-based, Acinetobacter baumannii; conditions: unit assumed
A. baumannii Ab16 [26] = assay: FaAST (FDAA metabolic labeling); assay type: cell-based, Acinetobacter baumannii; conditions: unit assumed
Experimental: as §1, with “cytometry.” for “cytometry. The flow detection results are shown in the attached FIG. 4-5, showing the curve of antibiotic concentration gradient and fluorescence intensity, and the MIC (minimum inhibitory concentration) is obtained by referring to this curve.”

Compound	BMD (MIC) (E. coli Ec11 [1]) [µg/mL]	FaAST (MIC) (E. coli Ec11 [2]) [µg/mL]	FaAST (MIC) (Ec ATCC 25922 [3]) [µg/mL]	BMD (MIC) (E. coli Ec13 [4]) [µg/mL]	FaAST (MIC) (E. coli Ec13 [5]) [µg/mL]	BMD (MIC) (Ec ATCC 25922 [6]) [µg/mL]	BMD (MIC) (P. aeruginosa Pa2 [7]) [µg/mL]	BMD (MIC) (P. aeruginosa Pa3 [8]) [µg/mL]	FaAST (MIC) (P. aeruginosa Pa2 [9]) [µg/mL]	FaAST (MIC) (P. aeruginosa Pa3 [10]) [µg/mL]	FaAST (MIC) (Pa ATCC 27853 [11]) [µg/mL]	BMD (MIC) (Pa ATCC 27853 [12]) [µg/mL]	BMD (MIC) (A. baumannii Ab19 [13]) [µg/mL]	FaAST (MIC) (A. baumannii Ab19 [14]) [µg/mL]	BMD (MIC) (K. pneumoniae Kp6 [15]) [µg/mL]	FaAST (MIC) (K. pneumoniae Kp6 [16]) [µg/mL]	CLSI QC range (Ec ATCC 25922 [19])	CLSI QC range (Pa ATCC 27853 [20])	further results
NCC[C@H](O)C(=O)N[C@@H]1C[C@H](N)[C@@H](O[C@H]2O[C@H](CN)[C@@H](O)[C@H](O)[C@H]2O)[C@H](O)[C@H]1O[C@H]1O[C@H](CO)[C@@H](O)[C@H](N)[C@H]1O [Amikacin]	4	8	2	2	1	1	2	4	0.5	8	4	2	2	2	0.5	0.5	0.5-4^	1-4	MIC, FaAST [17]: 0.5 µg/mL (≈ 0.854 µM); MIC, VITEK [18]: 0.5 µg/mL (≈ 0.854 µM)
CO/N=C(\C(=O)N[C@@H]1C(=O)N2C(C(=O)[O-])=C(C[N+]3(C)CCCC3)CS[C@H]12)c1csc(N)n1 [Cefepime, cefepime]	≤ 0.25	0.5	≤ 0.25	> 64	> 128	≤ 0.25	1	8	0.5	4	2	2	1	1	≤ 0.25	0.5	0.016-0.12	0.5-4	MIC (E.coli 1113 [21]): ≥ 128 µg/mL; MIC (E.coli 1146 [22]): 4 µg/mL (≈ 8.32 µM); MIC, Vitek 2 (E.coli 1113 [23]): > 64 µg/mL; Sensibility (E.coli 1113 [23]): R; Sensibility (E.coli 1146 [24]): S; MIC (E.coli 1146 [24]; Escherichia coli): ≤ 1 µg/mL; BMD (MIC) (A. baumannii Ab16 [25]): 128 µg/mL; FaAST (MIC) (A. baumannii Ab16 [26]): 64 µg/mL
